Active and inactive are the calls of the source. No cut-off for these calls is given here.
Assays:
[1] = Cytotoxicity against C57BL/6 mouse spleen cells assessed as growth inhibition incubated for 24 hrs at 37 degC by propidium iodide stain based flow cytometry method; assay type: cell-based; conditions: for CC50 at 24 h: C57BL/6, mouse, spleen cells, read-out: ED50; for ED50: mouse, spleen, 24 h
[2] = Selectivity index, ratio of ED50 for C57BL/6 mouse spleen cells to IC50 for Trypanosoma cruzi Tulaheun; assay type: functional
Trypanosoma cruzi [3] = assay: Antiparasitic activity against trypomastigote form of Trypanosoma cruzi Tulahuen-lacZ infected in LLC-MK2 ATCC cells assessed as parasite viability incubated for 4 days at 37 degC by chlorophenol beta-D-galactopyranose substrate based trypanocidal assay; assay type: functional, organism-based; conditions: LLC-MK2, 96 h
Trypanosoma cruzi [4] = assay: Antiparasitic activity against amastigote form of Trypanosoma cruzi Y strain infected in bone marrow macrophage cells assessed as amastigote viability incubated for 4 days by rapid panoptic stain based microscopy method; assay type: functional, organism-based; conditions: 96 h
Trypanosoma cruzi [5] = assay: Antiparasitic activity against trypomastigote form of Trypanosoma cruzi Y strain assessed as parasite viability at 62.5 to 500 uM incubated for 24 hrs; assay type: functional, organism-based
Trypanosoma cruzi [6] = assay: Antiparasitic activity against trypomastigote form of Trypanosoma cruzi Y strain infected in Swiss mouse assessed as reduction in blood trypomastigote viability at 100 mg/kg/day, po starting on day 5 post-infection and followed for 10 consecutive days by light microscopy method; assay type: functional, organism-based
[7] = Solubility of the compound in water; assay type: physicochemical; conditions: buffer
Trypanosoma cruzi [8] = assay: Potency index, ratio of IC50 of benznidazole for Trypanosoma cruzi Tulahuen to IC50 of test compound for Trypanosoma cruzi Tulahuen; assay type: functional

Row | Structure (SMILES) | CC50 at 24 h [1] [µM] | IC50 (Trypanosoma cruzi [3]) [µM] | ED50 [1] | further results
1 | Cc1ccccc1-c1cn(CC(=O)NCc2ccccc2)nn1 | 940 | > 100 |  | Selectivity Index [2]: 3.2
2 | O=C(Cn1cc(-c2cccc(C(F)(F)F)c2)nn1)NCc1ccccc1 |  | > 100 | Non-toxic | 
3 | O=C(Cn1ccnc1[N+](=O)[O-])NCc1ccccc1 [BENZNIDAZOLE] |  | 34 |  | IC50 (Trypanosoma cruzi [4]): 16 µM; Activity (Trypanosoma cruzi [5]): Active
4 | COc1cccc(-c2cn(CC(=O)NCc3ccccc3)nn2)c1 | 840 | 40 |  | IC50 (Trypanosoma cruzi [4]): 61.8 µM; Selectivity Index [2]: 21
5 | O=C(Cn1cc(C(=O)O)nn1)NCc1ccccc1 |  | > 100 | Non-toxic | 
6 | O=C(Cn1cc(-c2cccc([N+](=O)[O-])c2)nn1)NCc1ccccc1 | > 2000 | > 100 |  | Activity (Trypanosoma cruzi [5]): inactive
7 | O=C(Cn1nncc1-c1ccc([N+](=O)[O-])cc1)NCc1ccccc1 |  | > 100 | Non-toxic | Activity (Trypanosoma cruzi [5]): inactive
8 | COc1cc(OC)cc(-c2cn(CC(=O)NCc3ccccc3)nn2)c1 |  | > 100 | Non-toxic | 
9 | CC(C)(O)c1cn(CC(=O)NCc2ccccc2)nn1 | 1600 | > 400 |  | 
10 | O=C(Cn1nncc1-c1cccc([N+](=O)[O-])c1)NCc1ccccc1 |  | 86 | Non-toxic | Activity (Trypanosoma cruzi [5]): inactive
11 | Nc1cccc(-c2cn(CC(=O)NCc3ccccc3)nn2)c1 | 800 | > 100 |  | Selectivity Index [2]: 4.4
12 | O=C(Cn1cc(-c2ccccc2[N+](=O)[O-])nn1)NCc1ccccc1 |  | > 100 | Non-toxic | Activity (Trypanosoma cruzi [5]): inactive
13 | COc1ccc(-c2cn(CC(=O)NCc3ccccc3)nn2)cc1 |  | > 100 | Non-toxic | 
14 | COc1cccc(-c2cnnn2CC(=O)NCc2ccccc2)c1 | > 2000 | 50 |  | IC50 (Trypanosoma cruzi [4]): 60.4 µM
15 | O=C(O)CCCCc1cn(CC(=O)NCc2ccccc2)nn1 | 1080 | > 500 |  | 
16 | O=C(Cn1cc(C(=O)OCc2ccccc2)nn1)NCc1ccccc1 | 720 | > 500 |  | 
17 | O=C(Cn1nncc1CO)NCc1ccccc1 | > 2000 | > 100 |  | 
18 | Nc1ccc(-c2cn(CC(=O)NCc3ccccc3)nn2)cc1 | 1240 | > 100 |  | Selectivity Index [2]: 7.7
19 | O=C(O)CCc1cn(CC(=O)NCc2ccccc2)nn1 | 1420 | > 500 |  | 
20 | O=C(Cn1cc(CCCCO)nn1)NCc1ccccc1 | 1700 | > 400 |  | 
21 | O=C(Cn1cc(CO)nn1)NCc1ccccc1 | 490 | > 500 |  | 
22 | O=C(Cn1cc(-c2cccc(F)c2)nn1)NCc1ccccc1 |  | > 100 | Non-toxic | 
23 | NCc1cn(CC(=O)NCc2ccccc2)nn1 | > 2000 | > 500 |  | 
24 | Cc1ccc(-c2cn(CC(=O)NCc3ccccc3)nn2)cc1 |  | > 100 | Non-toxic | 
25 | CC(C)(C)OC(=O)NCc1cn(CC(=O)NCc2ccccc2)nn1 | > 2000 | > 100 |  | 
26 | CCC(O)Cc1cn(CC(=O)NCc2ccccc2)nn1 (stereo not drawn) | 630 | > 500 |  | 
27 | O=C(Cn1cc(-c2ccc([N+](=O)[O-])cc2)nn1)NCc1ccccc1 | 800 | 7 |  | IC50 (Trypanosoma cruzi [4]): 41.2 µM; Activity (Trypanosoma cruzi [6]): Active; Activity (Trypanosoma cruzi [5]): Active; solubility [7]: Insoluble; Selectivity Index [2]: 114.3; Ratio IC50 (Trypanosoma cruzi [8]): 5
28 | O=C(Cn1cc(-c2ccccc2C(F)(F)F)nn1)NCc1ccccc1 |  | > 100 | Non-toxic | 

— ChEMBL document CHEMBL3627627, “1,2,3-Triazole-based analogue of benznidazole displays remarkable activity against Trypanosoma cruzi” (Bioorg Med Chem, 2015)
